Data: publication PMC11052077, “Discovery of Dolutegravir Derivative against Liver Cancer via Inducing Autophagy and DNA Damage” (Molecules, 2024)

tested on: HRM cells (human renal mesangial cells); assay: in vitro; type: cell-based; details: 20 µM
Description: This study aimed to assess the anti-proliferative activity of dolutegravir-1,2,3-triazole derivatives on hepatocellular carcinoma cell lines, Huh7 and hepG2. A comprehensive CCK8 assay was employed to evaluate the impact of these compounds on cell viability, with cells treated at a concentration of 20 μM for 48 h. HRM cells, a normal cell line, were included as a control for comparative analysis. […]
(§1) CCK8 assay was used to measure cell viability. Cells with a density of 1 × 10^4 cells/well were seeded on 96-well plates. After adhesion, cells were treated with different diluted compounds or vehicle control DMSO and continued to be cultured for 48 h or 72 h, respectively. Then, CCK8 reagent was added for one hour incubation at 37 °C with 5% CO2. Absorbance was measured using a Microplate spectrophotometer (Thermo, Waltham, MA, USA) at 450 nm. The ratio of cell viability of control was taken as 100%. […] Then, IC50 of compounds were investigated using the prism statistical software 7.0.

Compound	Cell Viability (100%), 20 μM, 48 h, HRM [%]
COc1c2n(cc(C(=O)Nc3cccc(-c4cn(-c5cc(C(F)(F)F)ccc5C(F)(F)F)nn4)c3)c1=O)CC1OCCC(C)N1C2=O (centres unmarked) [Compound 5q]	91.40
COc1c2n(cc(C(=O)Nc3cccc(-c4cn(-c5ccccc5C(F)(F)F)nn4)c3)c1=O)CC1OCCC(C)N1C2=O (centres unmarked) [Compound 5c]	2.65
COc1c2n(cc(C(=O)Nc3cccc(-c4cn(-c5ccccc5Cl)nn4)c3)c1=O)CC1OCCC(C)N1C2=O (centres unmarked) [Compound 5v]	95.10
CCc1ccccc1-n1cc(-c2cccc(NC(=O)c3cn4c(c(OC)c3=O)C(=O)N3C(C)CCOC3C4)c2)nn1 (centres unmarked) [Compound 5k]	0.81
COc1ccc(-n2cc(-c3cccc(NC(=O)c4cn5c(c(OC)c4=O)C(=O)N4C(C)CCOC4C5)c3)nn2)cc1OC (centres unmarked) [Compound 5j]	108.54
COc1c2n(cc(C(=O)Nc3cccc(-c4cn(-c5ccccc5)nn4)c3)c1=O)CC1OCCC(C)N1C2=O (centres unmarked) [Compound 5o]	100.28
CCc1ccc(-n2cc(-c3cccc(NC(=O)c4cn5c(c(OC)c4=O)C(=O)N4C(C)CCOC4C5)c3)nn2)cc1 (centres unmarked) [Compound 5m]	101.13
COc1c2n(cc(C(=O)Nc3cccc(-c4cn(-c5ccccc5I)nn4)c3)c1=O)CC1OCCC(C)N1C2=O (centres unmarked) [Compound 5w]	92.77
COc1c2n(cc(C(=O)Nc3cccc(-c4cn(-c5cccc(C)c5)nn4)c3)c1=O)CC1OCCC(C)N1C2=O (centres unmarked) [Compound 5f]	66.43
COc1c2n(cc(C(=O)Nc3cccc(-c4cn(Cc5ccccc5Br)nn4)c3)c1=O)CC1OCCC(C)N1C2=O (centres unmarked) [Compound 6c]	105.55
COc1c2n(cc(C(=O)Nc3cccc(-c4cn(Cc5ccccc5C)nn4)c3)c1=O)CC1OCCC(C)N1C2=O (centres unmarked) [Compound 6g]	101.52
COc1c2n(cc(C(=O)Nc3cccc(-c4cn(Cc5ccccc5F)nn4)c3)c1=O)CC1OCCC(C)N1C2=O (centres unmarked) [Compound 6f]	102.19
COc1c2n(cc(C(=O)Nc3cccc(-c4cn(Cc5ccccc5)nn4)c3)c1=O)CC1OCCC(C)N1C2=O (centres unmarked) [Compound 6b]	99.53
COc1c2n(cc(C(=O)Nc3cccc(-c4cn(-c5ccccc5F)nn4)c3)c1=O)CC1OCCC(C)N1C2=O (centres unmarked) [Compound 5a]	71.18
COc1c2n(cc(C(=O)Nc3cccc(-c4cn(-c5ccc(C(C)(C)C)cc5)nn4)c3)c1=O)CC1OCCC(C)N1C2=O (centres unmarked) [Compound 5n]	108.06

tested on: hepG2 cells; assay: CCK8 cell viability assay, hepG2; type: cell-based, human; details: 20 μM, hepG2, CCK8, control taken as 100%
Description: (§2) This study aimed to assess the anti-proliferative activity of dolutegravir-1,2,3-triazole derivatives on hepatocellular carcinoma cell lines, Huh7 and hepG2. A comprehensive CCK8 assay was employed to evaluate the impact of these compounds on cell viability, with cells treated at a concentration of 20 μM for 48 h. HRM cells, a normal cell line, were included as a control for comparative analysis.
(§3) Human hepatocellular carcinoma cell lines Huh7 and hepG2 were obtained from ATCC (Manassas, VA, USA). Cells were cultured in DMEM or RPMI 1640 medium containing 10% FBS and 1% penicillin/streptomycin at 37 °C with a 5% CO2-humidified atmosphere.
as §1

Compound	Cell Viability (100%), 20 μM, 48 h, hepG2 [%]
COc1c2n(cc(C(=O)Nc3cccc(-c4cn(-c5cc(C(F)(F)F)ccc5C(F)(F)F)nn4)c3)c1=O)CC1OCCC(C)N1C2=O (centres unmarked) [Compound 5q]	38.49
COc1c2n(cc(C(=O)Nc3cccc(-c4cn(-c5ccccc5C(F)(F)F)nn4)c3)c1=O)CC1OCCC(C)N1C2=O (centres unmarked) [Compound 5c]	54.14
COc1c2n(cc(C(=O)Nc3cccc(-c4cn(-c5ccccc5Cl)nn4)c3)c1=O)CC1OCCC(C)N1C2=O (centres unmarked) [Compound 5v]	38.75
CCc1ccccc1-n1cc(-c2cccc(NC(=O)c3cn4c(c(OC)c3=O)C(=O)N3C(C)CCOC3C4)c2)nn1 (centres unmarked) [Compound 5k]	50.62
COc1ccc(-n2cc(-c3cccc(NC(=O)c4cn5c(c(OC)c4=O)C(=O)N4C(C)CCOC4C5)c3)nn2)cc1OC (centres unmarked) [Compound 5j]	77.13
COc1c2n(cc(C(=O)Nc3cccc(-c4cn(-c5ccccc5)nn4)c3)c1=O)CC1OCCC(C)N1C2=O (centres unmarked) [Compound 5o]	80.21
CCc1ccc(-n2cc(-c3cccc(NC(=O)c4cn5c(c(OC)c4=O)C(=O)N4C(C)CCOC4C5)c3)nn2)cc1 (centres unmarked) [Compound 5m]	77.30
COc1c2n(cc(C(=O)Nc3cccc(-c4cn(-c5ccccc5I)nn4)c3)c1=O)CC1OCCC(C)N1C2=O (centres unmarked) [Compound 5w]	54.35
COc1c2n(cc(C(=O)Nc3cccc(-c4cn(-c5cccc(C)c5)nn4)c3)c1=O)CC1OCCC(C)N1C2=O (centres unmarked) [Compound 5f]	12.96
COc1c2n(cc(C(=O)Nc3cccc(-c4cn(Cc5ccccc5Br)nn4)c3)c1=O)CC1OCCC(C)N1C2=O (centres unmarked) [Compound 6c]	46.80
COc1c2n(cc(C(=O)Nc3cccc(-c4cn(Cc5ccccc5C)nn4)c3)c1=O)CC1OCCC(C)N1C2=O (centres unmarked) [Compound 6g]	52.95
COc1c2n(cc(C(=O)Nc3cccc(-c4cn(Cc5ccccc5F)nn4)c3)c1=O)CC1OCCC(C)N1C2=O (centres unmarked) [Compound 6f]	63.23
COc1c2n(cc(C(=O)Nc3cccc(-c4cn(Cc5ccccc5)nn4)c3)c1=O)CC1OCCC(C)N1C2=O (centres unmarked) [Compound 6b]	57.81
COc1c2n(cc(C(=O)Nc3cccc(-c4cn(-c5ccccc5F)nn4)c3)c1=O)CC1OCCC(C)N1C2=O (centres unmarked) [Compound 5a]	90.43
COc1c2n(cc(C(=O)Nc3cccc(-c4cn(-c5ccc(C(C)(C)C)cc5)nn4)c3)c1=O)CC1OCCC(C)N1C2=O (centres unmarked) [Compound 5n]	77.30

same assay, conditions: 48 h, hepG2, CCK8; read-out: half maximal inhibitory concentration (IC50), hepG2

IC50 [µM]	Compound
18.5 ± 2.85	COc1c2n(cc(C(=O)Nc3cccc(-c4cn(-c5cc(C(F)(F)F)ccc5C(F)(F)F)nn4)c3)c1=O)CC1OCCC(C)N1C2=O (centres unmarked) [Compound 5q]
18.3 ± 1.14	COc1c2n(cc(C(=O)Nc3cccc(-c4cn(-c5ccccc5C(F)(F)F)nn4)c3)c1=O)CC1OCCC(C)N1C2=O (centres unmarked) [Compound 5c]
24.8 ± 2.21	COc1c2n(cc(C(=O)Nc3cccc(-c4cn(-c5ccccc5Cl)nn4)c3)c1=O)CC1OCCC(C)N1C2=O (centres unmarked) [Compound 5v]
15.2 ± 1.15	CCc1ccccc1-n1cc(-c2cccc(NC(=O)c3cn4c(c(OC)c3=O)C(=O)N3C(C)CCOC3C4)c2)nn1 (centres unmarked) [Compound 5k]
25.7 ± 0.42	COc1c2n(cc(C(=O)Nc3cccc(-c4cn(-c5ccccc5I)nn4)c3)c1=O)CC1OCCC(C)N1C2=O (centres unmarked) [Compound 5w]
12.1 ± 0.77	COc1c2n(cc(C(=O)Nc3cccc(-c4cn(-c5cccc(C)c5)nn4)c3)c1=O)CC1OCCC(C)N1C2=O (centres unmarked) [Compound 5f]
27.8 ± 2.94	COc1c2n(cc(C(=O)Nc3cccc(-c4cn(Cc5ccccc5Br)nn4)c3)c1=O)CC1OCCC(C)N1C2=O (centres unmarked) [Compound 6c]

tested on: Huh7 cells; assay: CCK8 cell viability assay, Huh7; type: cell-based, human; details: 20 μM, Huh7, CCK8, control taken as 100%
Description: as §2, §3, §1

Compound	Cell Viability (100%), 20 μM, 48 h, Huh7 [%]
COc1c2n(cc(C(=O)Nc3cccc(-c4cn(-c5cc(C(F)(F)F)ccc5C(F)(F)F)nn4)c3)c1=O)CC1OCCC(C)N1C2=O (centres unmarked) [Compound 5q]	12.00
COc1c2n(cc(C(=O)Nc3cccc(-c4cn(-c5ccccc5C(F)(F)F)nn4)c3)c1=O)CC1OCCC(C)N1C2=O (centres unmarked) [Compound 5c]	36.28
COc1c2n(cc(C(=O)Nc3cccc(-c4cn(-c5ccccc5Cl)nn4)c3)c1=O)CC1OCCC(C)N1C2=O (centres unmarked) [Compound 5v]	37.66
CCc1ccccc1-n1cc(-c2cccc(NC(=O)c3cn4c(c(OC)c3=O)C(=O)N3C(C)CCOC3C4)c2)nn1 (centres unmarked) [Compound 5k]	48.55
COc1ccc(-n2cc(-c3cccc(NC(=O)c4cn5c(c(OC)c4=O)C(=O)N4C(C)CCOC4C5)c3)nn2)cc1OC (centres unmarked) [Compound 5j]	65.52
COc1c2n(cc(C(=O)Nc3cccc(-c4cn(-c5ccccc5)nn4)c3)c1=O)CC1OCCC(C)N1C2=O (centres unmarked) [Compound 5o]	67.64
CCc1ccc(-n2cc(-c3cccc(NC(=O)c4cn5c(c(OC)c4=O)C(=O)N4C(C)CCOC4C5)c3)nn2)cc1 (centres unmarked) [Compound 5m]	36.41
COc1c2n(cc(C(=O)Nc3cccc(-c4cn(-c5ccccc5I)nn4)c3)c1=O)CC1OCCC(C)N1C2=O (centres unmarked) [Compound 5w]	49.87
COc1c2n(cc(C(=O)Nc3cccc(-c4cn(-c5cccc(C)c5)nn4)c3)c1=O)CC1OCCC(C)N1C2=O (centres unmarked) [Compound 5f]	15.92
COc1c2n(cc(C(=O)Nc3cccc(-c4cn(Cc5ccccc5Br)nn4)c3)c1=O)CC1OCCC(C)N1C2=O (centres unmarked) [Compound 6c]	39.13
COc1c2n(cc(C(=O)Nc3cccc(-c4cn(Cc5ccccc5C)nn4)c3)c1=O)CC1OCCC(C)N1C2=O (centres unmarked) [Compound 6g]	39.11
COc1c2n(cc(C(=O)Nc3cccc(-c4cn(Cc5ccccc5F)nn4)c3)c1=O)CC1OCCC(C)N1C2=O (centres unmarked) [Compound 6f]	54.58
COc1c2n(cc(C(=O)Nc3cccc(-c4cn(Cc5ccccc5)nn4)c3)c1=O)CC1OCCC(C)N1C2=O (centres unmarked) [Compound 6b]	68.00
COc1c2n(cc(C(=O)Nc3cccc(-c4cn(-c5ccccc5F)nn4)c3)c1=O)CC1OCCC(C)N1C2=O (centres unmarked) [Compound 5a]	83.32
COc1c2n(cc(C(=O)Nc3cccc(-c4cn(-c5ccc(C(C)(C)C)cc5)nn4)c3)c1=O)CC1OCCC(C)N1C2=O (centres unmarked) [Compound 5n]	54.04

same assay, conditions: 48 h, Huh7, CCK8; read-out: half maximal inhibitory concentration (IC50), Huh7

IC50 [µM]	Compound
7.85 ± 0.9	COc1c2n(cc(C(=O)Nc3cccc(-c4cn(-c5cc(C(F)(F)F)ccc5C(F)(F)F)nn4)c3)c1=O)CC1OCCC(C)N1C2=O (centres unmarked) [Compound 5q]
18.7 ± 0.53	COc1c2n(cc(C(=O)Nc3cccc(-c4cn(-c5ccccc5C(F)(F)F)nn4)c3)c1=O)CC1OCCC(C)N1C2=O (centres unmarked) [Compound 5c]
42.2 ± 1.1	COc1c2n(cc(C(=O)Nc3cccc(-c4cn(-c5ccccc5Cl)nn4)c3)c1=O)CC1OCCC(C)N1C2=O (centres unmarked) [Compound 5v]
16.9 ± 0.48	CCc1ccccc1-n1cc(-c2cccc(NC(=O)c3cn4c(c(OC)c3=O)C(=O)N3C(C)CCOC3C4)c2)nn1 (centres unmarked) [Compound 5k]
15.9 ± 0.31	COc1c2n(cc(C(=O)Nc3cccc(-c4cn(-c5ccccc5I)nn4)c3)c1=O)CC1OCCC(C)N1C2=O (centres unmarked) [Compound 5w]
8.63 ± 0.33	COc1c2n(cc(C(=O)Nc3cccc(-c4cn(-c5cccc(C)c5)nn4)c3)c1=O)CC1OCCC(C)N1C2=O (centres unmarked) [Compound 5f]
13.9 ± 0.81	COc1c2n(cc(C(=O)Nc3cccc(-c4cn(Cc5ccccc5Br)nn4)c3)c1=O)CC1OCCC(C)N1C2=O (centres unmarked) [Compound 6c]
